The text below walks through data of patent US20230393140A1, “BINDING ASSAYS INVOLVING A PLURALITY OF SYNTHETIC COMPOUNDS, TARGETS, AND COUNTER TARGETS” (SRI International, priority 2020, published 2023).

Numbered stars: 1 amine (or outer) side, 2 acyl side, 3 side chain; on linkers, the order of the positions; unused ones are H or OH. Square brackets hold non-standard residues; d marks the D form. Peptide text beside a SMILES is read from it. * marks the point of attachment. 5FAM = O=C1OC2(c3ccc(O)cc3Oc3cc(O)ccc32)c2ccc(C(=O)*)cc21; NHCH2C6H4(4-CH2CONH2) = NC(=O)Cc1ccc(CN*)cc1; X1 = O=C(Cc1ccc(CN[*:1])cc1)[*:2]

Assay [1] deals with HepG2 cells (high ASGPR expressing). In words: ASGPR uptake assay, flow cytometry, HepG2. The assay is classed as cell-based, human. As to the method:
The HEK293T (human embryonic kidney cells) and human hepatoma HepG2 cells were grown according to the protocols provided by the American Type Culture Collection (ATCC). When cells reached cell were seeded at ˜1.5×10^5 cells/well in 24-well culture plate for the uptake assay. After at least 16 hours of culture to allow cell attach and equilibrate, the compound treatment was set up for the uptake assay.
The fluorescein-labeled NNPs or fluorescein-labeled N-acetylgalactosamine (GalNAc) recognizing ASGRPR were added to wells at indicated concentrations and incubated for 2 hours. Two plates were prepared for each treatment condition, one serving as 4 degrees C. no internalization control that was kept on ice during incubation, while the second plate was incubated at 37 degrees C. to allow for energy dependent internalization. Following the incubation period, all plates were placed on ice and washed three times with ice-cold PBS/3% BSA/2 mM EDTA and then lifted with trypsin. Cells were transferred to a 96-well round bottom plates in FACS buffer. Cells were then analyzed by flow cytometry using LSR-HJ with HTS sampler (BD Biosciences, San Jose, CA, USA). Data (mean fluorescence intensities) and further analyzed using Flowjo software (BD Biosciences, San Jose, CA, USA). The internalized fraction was expressed as the difference between the corresponding 4 degrees C. and 37 degrees C. MFIs as previously described.
For orientation: A flow cytometer gives signals particle by particle.

Assay [2] deals with T1, ASGPR (Homo sapiens, UniProt P07306).
T1 construct: purchased R&D Systems, Inc. 4394-AS
T1 sequence (P07306 1-291): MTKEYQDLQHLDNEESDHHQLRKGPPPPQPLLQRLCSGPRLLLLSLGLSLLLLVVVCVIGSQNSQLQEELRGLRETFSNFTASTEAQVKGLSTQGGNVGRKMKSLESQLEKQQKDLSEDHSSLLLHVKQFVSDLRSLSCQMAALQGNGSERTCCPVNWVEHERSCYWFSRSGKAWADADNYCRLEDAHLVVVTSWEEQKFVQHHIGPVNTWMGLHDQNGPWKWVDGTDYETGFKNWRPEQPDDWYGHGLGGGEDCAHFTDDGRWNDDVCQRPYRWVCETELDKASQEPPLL
Kind of assay: MST binding affinity of resynthesized NNP hits to ASGPR. Particulars: read-out: KD of ASGPR hits by MST. How it is done:
(§1) Hit binding affinity to various targets were determined using Microscale Thermophoresis (MST). MST experiments were performed on a Monolith NT.115pico (NanoTemper Technologies GmbH, Munich, Germany). Measurements were performed at room temperature, in triplicate with incubation periods of 15, 30 and 45 minutes. […] Targets were labeled using Nanotemper Monolith 2nd Generation Protein Labeling Kits. RED-MALEIMIDE (Maleimide-647-dye) labeling kit was used for K-Ras and RED-NHS (NHS-647-dye) labeling kit was used for IL-6, IL-6R, TNFα and ASGPR. The buffer for the ASGPR contained 20 mM HEPES pH 7.4, 150 mM NaCl, 10 mM MgCl2, 2 mM CaCl2, 0.05% Pluronic F-127, and 1 mM DTT; for IL-6 contained 20 mM HEPES pH 7.4, 150 mM KCl, 10 mM MgCl2, and 0.1% Pluronic F-127; for the soluble IL-6 receptor 20 mM HEPES pH 7.4, 150 mM NaCl, 10 mM MgCl2, and 0.05% Tween-20; for K-Ras 20 mM HEPES pH 7.4, 150 mM NaCl, 10 mM MgCl2, 0.05% Tween-20 and 1 mM DTT; for TNFα 10 mM HEPES pH 7.4, 150 mM NaCl, 10 mM MgCl2, 0.05% Polysorbate-20. Triplicate data was analyzed using MO.AffinityAnalysis software (NanoTemper Technologies GmbH).

The subject of assay [3] is ASGPR-mediated uptake in HepG2 cells. Kind of assay: Competitive uptake assay with asialofetuin in HepG2. Type of assay: cell-based, human. The settings on record: test compound 0.3 μM. As to the method: For the competitive uptake assay with the natural ligand of ASGPR (asialofetuin), cells were pre-incubated with 20 μM and 60 μM asialofetuin on ice or at 37 degrees C. for 1.5 hours, followed by the treatment with compounds for additional 2 hours before flow cytometric analysis as described above. The reduction of the uptake under asialofetuin competition was expressed by the percentage against the same treatment condition without asialofetuin.

In assay [4] the target is T2, IL-6 (Homo sapiens, UniProt P05231).
T2 construct: purchased Creative Biomart IL6-12H
Kind of assay: MST binding affinity of resynthesized NNP hits to IL-6. The settings on record: read-out: KD (nM) [95% conf. int], NNP2 library hit, target IL-6, one-site binding model. How it is done:
as §1

Take `CC(C)C[C@H](NC(=O)CNC(=O)[C@@H](Cc1c[nH]cn1)NC(=O)[C@@H](CCCNC(=N)N)NC(=O)[C@H]1CCCN1C(=O)Cc1ccc(CNC(=O)[C@H](Cc2ccccc2)NC(=O)[C@@H](CO)NC(=O)[C@@H](CCCNC(=N)N)NC(=O)[C@H]2CCCN2C(=O)CNC(=O)Cc2ccc(CNC(=O)[C@H](CC(C)C)NC(=O)[C@@H](CCCNC(=N)N)NC(=O)[C@@H](CCCCN)NC(=O)[C@@H](CCC(=O)O)NC(=O)[C@@H](Cc3ccccc3)NC(=O)Cc3ccc(CNC(=O)[C@H](Cc4ccccc4)NC(=O)[C@@H](CO)NC(=O)[C@@H](CCC(=O)O)NC(=O)[C@H]4CCCN4C(=O)[C@@H](CC(C)C)NC(=O)c4ccc5c(c4)C(=O)OC54c5ccc(O)cc5Oc5cc(O)ccc54)cc3)cc2)cc1)C(=O)NCc1ccc(CC(=O)N[C@H](CCCNC(=N)N)C(=O)N[C@H](Cc2ccccc2)C(=O)N2CCC[C@@H]2C(=O)N[C@@H](C(=O)NCC(=O)NCc2ccc(CC(=O)N[C@H](CC(C)C)C(=O)N3CCC[C@@H]3C(=O)N[C@H](CCCNC(=N)N)C(=O)N[C@@H](C(=O)NCC(=O)NCc3ccc(CC(N)=O)cc3)[C@H](C)O)cc2)C(C)C)cc1` [ASGPR-9-4] (5FAM-[dL][dP][dE][dS]F[X1][dF][dE][dK][dR]L[X1]G[dP][dR][dS]F[X1][dP][dR][dH]GL[X1][dR][dF][dP][dV]G[X1][dL][dP][dR][dT]G-{NHCH2C6H4(4-CH2CONH2)}): the “Internalization compared with positive control GalNAc” value in assay [1] (HepG2, flow cytometry) is reported as “significantly higher than uptake of the positive control GalNAc”. Moreover, in assay [1] (fluorescein-labeled compounds, flow cytometry, 2 hours), the “Internalization (cell uptake) in HepG2” value is recorded as “significantly higher in HepG2 cells compared to in HEK293 cells”. Also, the Kd – broadly, the constant that tells how readily two partners part at equilibrium – in assay [2] came out at 230 nM. The “Cellular uptake with 60 μM asialofetuin” value in assay [3] (60 μM asialofetuin (200-fold excess)) is on record as “mostly abolished”. Moreover, the “Cellular uptake after pre-incubation with asialofetuin” value in assay [3] (asialofetuin 20 μM and 60 μM) is “decreased with increasing concentrations of asialofetuin”.

With `CC(C)C[C@H](NC(=O)[C@@H](CCCNC(=N)N)NC(=O)CNC(=O)Cc1ccc(CNC(=O)[C@H](Cc2ccccc2)NC(=O)[C@@H](Cc2ccccc2)NC(=O)[C@@H](CO)NC(=O)c2ccc3c(c2)C(=O)OC32c3ccc(O)cc3Oc3cc(O)ccc32)cc1)C(=O)NCc1ccc(CC(=O)N[C@H](CC(C)C)C(=O)N[C@H](CCCCN)C(=O)N[C@@H](CC(C)C)C(=O)NCc2ccc(CC(=O)N[C@H](Cc3c[nH]c4ccccc34)C(=O)N[C@H](CCCNC(=N)N)C(=O)N[C@@H](CC(C)C)C(=O)NCc3ccc(CC(=O)N[C@H](C)C(=O)N[C@H](CCCCN)C(=O)N[C@@H](Cc4ccccc4)C(=O)NCc4ccc(CC(=O)N[C@H](Cc5c[nH]cn5)C(=O)N[C@H](CCCCN)C(=O)N[C@@H](Cc5ccccc5)C(=O)NCc5ccc(CC(=O)N[C@H](C)C(=O)N[C@H](CCCNC(=N)N)C(=O)N[C@@H](CC(C)C)C(=O)NCc6ccc(CC(=O)N[C@@H](C(=O)N[C@H](Cc7c[nH]cn7)C(=O)N[C@@H](CC(C)C)C(=O)NCc7ccc(CC(=O)N[C@H](Cc8ccccc8)C(=O)N[C@H](CCCNC(=N)N)C(=O)NCC(=O)NCc8ccc(CC(N)=O)cc8)cc7)[C@H](C)O)cc6)cc5)cc4)cc3)cc2)cc1` [IL6-65-5] (5FAM-[dS][dF]F[X1]G[dR]L[X1][dL][dK]L[X1][dW][dR]L[X1][dA][dK]F[X1][dH][dK]F[X1][dA][dR]L[X1][dT][dH]L[X1][dF][dR]G-{NHCH2C6H4(4-CH2CONH2)}), the Kd in assay [4] came to 33 nM.

As for `CC(C)C[C@H](NC(=O)[C@@H](CCCNC(=N)N)NC(=O)CNC(=O)Cc1ccc(CNC(=O)[C@H](CC(C)C)NC(=O)[C@@H](CC(C)C)NC(=O)[C@@H](Cc2ccc(O)cc2)NC(=O)c2ccc3c(c2)C(=O)OC32c3ccc(O)cc3Oc3cc(O)ccc32)cc1)C(=O)NCc1ccc(CC(=O)N[C@H](CCCNC(=N)N)C(=O)N[C@H](CO)C(=O)N[C@@H](Cc2ccccc2)C(=O)NCc2ccc(CC(=O)N[C@H](Cc3ccccc3)C(=O)N[C@H](CCCNC(=N)N)C(=O)N[C@@H](C)C(=O)NCc3ccc(CC(=O)N[C@H](CCC(=O)O)C(=O)N[C@H](CCCCN)C(=O)N[C@@H](Cc4ccccc4)C(=O)NCc4ccc(CC(=O)N[C@H](CCC(=O)O)C(=O)N[C@H](CCCNC(=N)N)C(=O)N[C@@H](CC(C)C)C(=O)NCc5ccc(CC(=O)N[C@H](C)C(=O)N[C@H](CCCNC(=N)N)C(=O)N[C@@H](CC(C)C)C(=O)NCc6ccc(CC(=O)N7CCC[C@@H]7C(=O)N[C@H](CCCNC(=N)N)C(=O)N[C@@H](C)C(=O)NCc7ccc(CC(=O)N[C@H](Cc8ccc(O)cc8)C(=O)N[C@H](CCCNC(=N)N)C(=O)N[C@@H](Cc8ccccc8)C(=O)NCc8ccc(CC(N)=O)cc8)cc7)cc6)cc5)cc4)cc3)cc2)cc1` [IL6-65-7, Fluorescein-(D)Tyr-(D)Leu-(L)Leu-PAM-Gly-(D)Arg-(L)Leu-PAM-(D)Arg-(D)Ser-(L)Phe-PAM-(D)Phe-(D)Arg-(L)Ala-PAM-(D)Glu-(D)Lys-(L)Phe-PAM-(D)Glu-(D)Arg-(L)Leu-PAM-(D)Ala-(D)Arg-(L)Leu- PAM-(D)Pro-(D)Arg-(L)Ala-PAM-(D)Tyr-(D)Arg-(L)Phe-PAM] (5FAM-[dY][dL]L[X1]G[dR]L[X1][dR][dS]F[X1][dF][dR]A[X1][dE][dK]F[X1][dE][dR]L[X1][dA][dR]L[X1][dP][dR]A[X1][dY][dR]F-{NHCH2C6H4(4-CH2CONH2)}), in assay [4], the Kd turned out to be 210 nM.

On to `CC(C)C[C@H](NC(=O)[C@@H](CCCNC(=N)N)NC(=O)CNC(=O)Cc1ccc(CNC(=O)[C@H](CC(C)C)NC(=O)[C@@H](CC(C)C)NC(=O)[C@@H](Cc2ccc(O)cc2)NC(=O)c2ccc3c(c2)C(=O)OC32c3ccc(O)cc3Oc3cc(O)ccc32)cc1)C(=O)NCc1ccc(CC(=O)N[C@H](CCCNC(=N)N)C(=O)N[C@H](CO)C(=O)N[C@@H](Cc2ccccc2)C(=O)NCc2ccc(CC(=O)N3CCC[C@@H]3C(=O)N[C@H](CCCNC(=N)N)C(=O)N[C@H](C(=O)NCc3ccc(CC(=O)N[C@H](Cc4c[nH]c5ccccc45)C(=O)N[C@H](CCCNC(=N)N)C(=O)N[C@H](C(=O)NCc4ccc(CC(=O)N[C@H](CC(N)=O)C(=O)N[C@H](CCCNC(=N)N)C(=O)N[C@@H](Cc5ccccc5)C(=O)NCc5ccc(CC(=O)N[C@H](CCC(=O)O)C(=O)N[C@H](Cc6ccc(O)cc6)C(=O)N[C@H](C(=O)NCc6ccc(CC(=O)N7CCC[C@@H]7C(=O)N[C@H](CCCNC(=N)N)C(=O)N[C@@H](C)C(=O)NCc7ccc(CC(=O)N[C@H](Cc8ccc(O)cc8)C(=O)N[C@H](CCCNC(=N)N)C(=O)N[C@@H](Cc8ccccc8)C(=O)NCc8ccc(CC(N)=O)cc8)cc7)cc6)C(C)C)cc5)cc4)C(C)C)cc3)C(C)C)cc2)cc1` [IL6-65-11, Fluorescein-(D)Tyr-(D)Leu-(L)Leu-PAM-Gly-(D)Arg-(L)Leu-PAM-(D)Arg-(D)Ser-(L)Phe-PAM-(D)Pro-(D)Arg-(L)Val-PAM-(D)Trp-(D)Arg-(L)Val-PAM-(D)Asn-(D)Arg-(L)Phe-PAM-(D)Glu-(D)Tyr-(L)Val- PAM-(D)Pro-(D)Arg-(L)Ala-PAM-(D)Tyr-(D)Arg-(L)Phe-PAM] (5FAM-[dY][dL]L[X1]G[dR]L[X1][dR][dS]F[X1][dP][dR]V[X1][dW][dR]V[X1][dN][dR]F[X1][dE][dY]V[X1][dP][dR]A[X1][dY][dR]F-{NHCH2C6H4(4-CH2CONH2)}), for which the Kd in assay [4] came out at 25 nM.
